Measured values reported in patent US20190336498A1, “METHODS AND COMPOSITIONS FOR THE TREATMENT OF CUSHING'S SYNDROME USING 2S, 4R KETOCONAZOLE” (STRONGBRIDGE DUBLIN LIMITED, priority 2014, published 2019).

Columns and labels:
Cushing's syndrome = settings: off-label, titrated to effect; cited from earlier work
C-reactive protein (CRP) = settings: clinical study; cited from earlier work
14-α-demethylase = target: T1, 14-α-demethylase (Rattus norvegicus, UniProt Q64654); settings: comparison in words; cited from earlier work
T1 sequence (Q64654 1-503): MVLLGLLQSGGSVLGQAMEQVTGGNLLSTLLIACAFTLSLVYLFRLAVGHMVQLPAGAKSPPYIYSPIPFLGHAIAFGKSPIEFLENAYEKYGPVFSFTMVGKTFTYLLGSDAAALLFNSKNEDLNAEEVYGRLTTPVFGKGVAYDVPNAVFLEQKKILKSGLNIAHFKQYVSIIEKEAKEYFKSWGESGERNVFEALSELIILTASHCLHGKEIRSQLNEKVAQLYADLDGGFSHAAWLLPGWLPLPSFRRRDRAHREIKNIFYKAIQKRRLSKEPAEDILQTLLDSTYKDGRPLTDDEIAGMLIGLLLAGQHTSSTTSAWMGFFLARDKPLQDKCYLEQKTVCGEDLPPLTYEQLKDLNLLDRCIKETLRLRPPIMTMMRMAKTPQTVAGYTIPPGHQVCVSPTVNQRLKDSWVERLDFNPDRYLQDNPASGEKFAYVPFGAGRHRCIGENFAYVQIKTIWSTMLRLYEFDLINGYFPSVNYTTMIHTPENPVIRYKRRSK

cholesterol = settings: vs the other enantiomer; cited from earlier work
[1] = Pharmacokinetics of the enantiomers in humans after oral administration of ketoconazole; type: in vivo; settings: following oral administration of ketoconazole (racemic)
Source text: Reduced hepatic exposure to the 2S,4R enantiomer may be of value in reducing the liver function abnormalities observed following administration of racemic ketoconazole.

[2] = Safety and tolerability in healthy volunteers and subjects with Type 2 Diabetes Mellitus; type: in vivo, human; settings: 200 mg to 600 mg QD for up to 14 days and 150 mg to 450 mg for up to 4 months; healthy volunteers and T2DM subjects
QTc interval = QTc interval prolongation; settings: in vivo
Source text: The potential risk of protracted, drug induced prolongation of the QTc interval on the ECG is the development of an arrhythmia called torsade de pointes. […] Subjects with CS may have greater than normal QTc intervals and treatment that reduces cortisol levels may result in reductions in QTc intervals.

11-β-hydroxylase = settings: comparison in words; cited from earlier work
corticosterone = settings: rats; vs the other enantiomers or racemic ketoconazole; cited from earlier work

SMILES | therapeutic success rate in CS (Cushing's syndrome) | reduction in C-reactive protein (CRP) levels (C-reactive protein (CRP)) | IC50 toward a key enzyme in cholesterol synthesis (14-α-demethylase) compared with the other enantiomer (14-α-demethylase) | reduction of cholesterol (cholesterol) | blood concentrations of the 2S,4R enantiomer exceed those of the 2R,4S enantiomer [1] | safety and tolerability [2] | prolongation of QTc intervals (QTc interval) | IC50 toward the key enzyme in cortisol synthesis (11-α-hydroxylase) compared with the other enantiomer (11-β-hydroxylase) | IC50 toward the key enzyme in cortisol synthesis (11-β-hydroxylase) compared with the other enantiomer (11-β-hydroxylase) | potency with respect to reducing corticosterone (corticosterone)
CC(=O)N1CCN(c2ccc(OCC3COC(Cn4ccnc4)(c4ccc(Cl)cc4Cl)O3)cc2)CC1 (racemic) [racemic ketoconazole, reference compound] | 50-70% | no reduction | – | – | – | – | – | – | – | –
CC(=O)N1CCN(c2ccc(OC[C@@H]3CO[C@@](Cn4ccnc4)(c4ccc(Cl)cc4Cl)O3)cc2)CC1 (racemic) [2S,4R ketoconazole enantiomer] | – | dose response reduction | significantly lower IC50 | appeared to reduce cholesterol more than the other enantiomer | approximately 3 fold | generally safe and well tolerated | capability to prolong QTc intervals in a dose (concentration) related manner | significantly lower IC50 | significantly lower IC50 | more potent
